Source: patent US20250025443A1, “COMPOUNDS AND METHODS FOR TREATING CORONA VIRUSES” (CLEAR CREEK BIO, INC., priority 2021, published 2025)

Target: SARS-CoV-2 Papain-Like Protease (PLpro) (Severe acute respiratory syndrome coronavirus 2 (2019-nCoV) (SARS-CoV-2), UniProt P0DTD1)
Assay: biochemical
Conditions: PLpro enzymatic fluorescence assay; class symbols; read-out: PLpro IC50

| Molecule | IC50 |
| --- | --- |
| Cc1ccc(OCC2CCN2C)cc1C(=O)NC1(c2cc(-c3ccc(Cl)s3)cc3ccccc23)CC1 (centres unmarked) [Compound 514, N-(1-(3-(5-Chlorothiophen-2-yl)naphthalen-1-yl)cyclopropyl)-2-methyl-5-((1-methylazetidin-2-yl)methoxy)benzamide] | < 100 nM |
| Cc1ccc(OC[C@@H]2CCN2)cc1C(=O)NC1(c2cc(-c3cncc(N4CCOCC4)c3)cc3ncccc23)CC1 [Compound 689, (S)-5-(Azetidin-2-ylmethoxy)-2-methyl-N-(1-(7-(5-morpholinopyridin-3-yl)quinolin-5-yl)cyclopropyl)benzamide] | < 100 nM |
| Cc1ccc(OC[C@@H]2CCN2C)cc1C(=O)NC1(c2cc(-n3cccn3)cc3ncccc23)CC1 [Compound 619, (S)-N-(1-(7-(1H-Pyrazol-1-yl)quinolin-5-yl)cyclopropyl)-2-methyl-5-((1-methylazetidin-2-yl)methoxy)benzamide] | < 100 nM |
| Cc1nnc(-c2cc(C3(NC(=O)c4cc(OC[C@@H]5CCN5C)ccc4C)CC3)c3cccnc3c2)s1 [Compound 691, (S)-2-Methyl-N-(1-(7-(5-methyl-1,3,4-thiadiazol-2-yl)quinolin-5-yl)cyclopropyl)-5-((1-methylazetidin-2-yl)methoxy)benzamide] | < 100 nM |
| Cc1ccc(OCC(C)N)cc1C(=O)NC1(c2cc(-c3ccc(F)cc3)cc3ccccc23)CC1 (centres unmarked) [Compound 480, 5-(2-Aminopropoxy)-N-(1-(3-(4-fluorophenyl)naphthalen-1-yl)cyclopropyl)-2-methylbenzamide] | < 100 nM |
| Cc1ccc(OC[C@@H]2CCN2C)cc1C(=O)NC1(c2cc(-c3ccc(C(=O)N4CCCC4)s3)cc3ncccc23)CC1 [Compound 767, (S)-2-Methyl-5-((1-methylazetidin-2-yl)methoxy)-N-(1-(7-(5-(pyrrolidine-1-carbonyl)thiophen-2-yl)quinolin-5-yl)cyclopropyl)benzamide] | > 5000 nM |
| Cc1ccc(OC[C@@H]2CCN2)cc1C(=O)NC1(c2cc(C3=CCCCC3)cc3ncccc23)CC1 [Compound 662, (S)-5-(Azetidin-2-ylmethoxy)-N-(1-(7-(cyclohex-1-en-1-yl)quinolin-5-yl)cyclopropyl)-2-methylbenzamide] | < 100 nM |
| COc1cc(C2(NC(=O)c3cc(OC[C@@H]4CC[C@@H]5CNCCN54)ccc3C)CC2)c2cccnc2c1 [Compound 789] | < 100 nM |
| Cc1ccc(OC[C@@H]2CCN2C)cc1C(=O)NC1(c2cc(-c3cnn(C)c3)cc3ncccc23)CC1 [Compound 670, (S)-2-Methyl-N-(1-(7-(1-methyl-1H-pyrazol-4-yl)quinolin-5-yl)cyclopropyl)-5-((1-methylazetidin-2-yl)methoxy)benzamide] | < 100 nM |
| COc1cc(C2(NC(=O)c3cc(OC[C@H]4C[C@H](F)CN4C)ccc3C)CC2)c2cccnc2c1 [Compound 557, 5-(((2R,4S)-4-Fluoro-1-methylpyrrolidin-2-yl)methoxy)-N-(1-(7-methoxyquinolin-5-yl)cyclopropyl)-2-methylbenzamide] | < 100 nM |
| COc1cc(C2(NC(=O)c3cc(OC[C@@H]4CCN4C)c(O)cc3C)CC2)c2cccnc2c1 [Compound 750, (S)-4-Hydroxy-N-(1-(7-methoxyquinolin-5-yl)cyclopropyl)-2-methyl-5-((1-methylazetidin-2-yl)methoxy)benzamide] | < 100 nM |
| C=Cc1cc(C2(NC(=O)c3cc(OCC4CCN4C)ccc3C)CC2)c2ccccc2c1 (centres unmarked) [Compound 517, 2-Methyl-5-((1-methylazetidin-2-yl)methoxy)-N-(1-(3-vinylnaphthalen-1-yl)cyclopropyl)benzamide] | < 100 nM |
| COc1cc(C2(NC(=O)c3cc(OC[C@H]4C[C@H](F)CN4)ccc3C)CC2)c2cccnc2c1 [Compound 556, 5-(((2R,4S)-4-Fluoropyrrolidin-2-yl)methoxy)-N-(1-(7-methoxyquinolin-5-yl)cyclopropyl)-2-methylbenzamide] | < 100 nM |
| Cc1ccc(OC[C@@H]2CCN2C)cc1C(=O)NC1(c2cc(C3=CCCCC3)cc3ncccc23)CC1 [Compound 663, (S)—N-(1-(7-(Cyclohex-1-en-1-yl)quinolin-5-yl)cyclopropyl)-2-methyl-5-((1-methylazetidin-2-yl)methoxy)benzamide] | < 100 nM |
| Cc1ccc([N+](=O)[O-])cc1CNC(c1cccc2ccccc12)C1CCOC1 (centres unmarked) [Compound 123] | > 5000 nM |
| Cc1ccc(OC[C@@H]2CCN2C)cc1C(=O)NC1(c2cc(N(C)S(C)(=O)=O)cc3ncccc23)CC1 [Compound 818, (S)-2-Methyl-5-((1-methylazetidin-2-yl)methoxy)-N-(1-(7-(N-methylmethylsulfonamido)quinolin-5-yl)cyclopropyl)benzamide] | < 100 nM |

Same assay, conditions: SARS-CoV-2 PLpro enzymatic fluorescence assay; read-out: PLpro IC50

| Molecule | IC50 |
| --- | --- |
| Cc1cc2cc(CN)oc2cc1C(=O)NC1(c2cccc3ccccc23)CC1 [Compound 197, 2-(Aminomethyl)-5-methyl-N-(1-(naphthalen-1-yl)cyclopropyl)benzofuran-6-carboxamide] | < 100 nM |
| CC[S+]([O-])c1cc(C2(NC(=O)c3cc(OCCN(C)C)ccc3C)CC2)c2ccccc2c1 (centres unmarked) [Compound 423, 5-(2-(Dimethylamino)ethoxy)-N-(1-(3-(ethylsulfinyl)naphthalen-1-yl)cyclopropyl)-2-methylbenzamide] | < 100 nM |
| COCC(NC(=O)c1cc(N)ccc1C)c1cccc2ccccc12 (centres unmarked) [Compound 118, 5-Amino-N-(2-methoxy-1-(naphthalen-1-yl)ethyl)-2-methylbenzamide] | > 5000 nM |
| Cc1ccc(OCCN(C)C)cc1C(=O)NC1(c2cccc3sccc23)CC1 [Compound 356, N-(1-(Benzo[b]thiophen-4-yl)cyclopropyl)-5-(2-(dimethylamino)ethoxy)-2-methylbenzamide] | < 100 nM |
| C=Cc1cc(C2(NC(=O)c3cc(OC[C@@H]4CCCN4)ccc3C)CC2)c2cccnc2c1 [Compound 713, (S)-2-Methyl-5-(pyrrolidin-2-ylmethoxy)-N-(1-(7-vinylquinolin-5-yl)cyclopropyl)benzamide] | < 100 nM |
| Cc1ccc(OCCN(C)C)cc1C(=O)NC1(c2ccccc2Br)CC1 [Compound 251, N-(1-(2-Bromophenyl)cyclopropyl)-5-(2-(dimethylamino)ethoxy)-2-methylbenzamide] | 100 to 1000 nM |
| Cc1cc2[nH]c(=O)[nH]c2cc1C(=O)NC1(c2cccc3ccccc23)CC1 [Compound 238, 6-Methyl-N-(1-(naphthalen-1-yl)cyclopropyl)-2-oxo-2,3-dihydro-1H-benzo[d]imidazole-5-carboxamide] | 100 to 1000 nM |
| Cc1ccc(O[C@@H]2CC[C@@H]2N)cc1C(=O)NC1(c2cccc3ccccc23)CC1 (racemic) [Compound 406, rac-5-((1S,2R)-2-Aminocyclobutoxy)-2-methyl-N-(1-(naphthalen-1-yl)cyclopropyl)benzamide] | < 100 nM |
| Cc1cc2ccn(CC3CNC3)c2cc1C(=O)NC1(c2cccc3ccccc23)CC1 [Compound 239, 1-(Azetidin-3-ylmethyl)-5-methyl-N-(1-(naphthalen-1-yl)cyclopropyl)-1H-indole-6-carboxamide] | < 100 nM |
| Cc1ccc(Nc2cn[nH]c2)cc1C(=O)N[C@H](C)c1cccc(-c2ccc(CN[C@H]3CC[C@@H](O)C3)s2)c1 [Compound 140, 5-((1H-Pyrazol-4-yl)amino)-N-((R)-1-(3-(5-((((1S,3R)-3-hydroxycyclopentyl)amino)methyl)thiophen-2-yl)phenyl)ethyl)-2-methylbenzamide] | 1000 to 5000 nM |
| Cc1ccc(NS(C)(=O)=O)cc1C(=O)N[C@H](C)c1cccc2ccccc12 [Compound 100, (R)-2-Methyl-5-(methylsulfonamido)-N-(1-(naphthalen-1-yl)ethyl)benzamide] | > 5000 nM |
| C[C@H](c1cccc2ccccc12)N1C[C@@H]2[C@H](C1)[C@H]2C(=O)NCc1cccc(F)c1 [Compound 149] | > 5000 nM |
| Cc1ccc(OC[C@@H]2CCN2C)cc1C(=O)NC1(c2cc(O)nc3ccccc23)CC1 [Compound 565, (S)-N-(1-(2-Hydroxyquinolin-4-yl)cyclopropyl)-2-methyl-5-((1-methylazetidin-2-yl)methoxy)benzamide] | < 100 nM |
| COc1ccc(OCCN(C)C)cc1C(=O)NC1(c2cccc3ccccc23)CC1 [Compound 303, 5-(2-(Dimethylamino)ethoxy)-2-methoxy-N-(1-(naphthalen-1-yl)cyclopropyl)benzamide] | > 5000 nM |
| Cc1ccc(OCCN2CCOCC2)cc1C(=O)NC1(c2cccc3ccccc23)CC1 [Compound 209, 2-Methyl-5-(2-morpholinoethoxy)-N-(1-(naphthalen-1-yl)cyclopropyl)benzamide] | 100 to 1000 nM |
| Cc1cc2cc(CN(C)C)oc2cc1C(=O)NC1(c2cccc3ccccc23)CC1 [Compound 198, 2-((Dimethylamino)methyl)-5-methyl-N-(1-(naphthalen-1-yl)cyclopropyl)benzofuran-6-carboxamide] | 100 to 1000 nM |
| Cc1ccc(OCCNCCO)cc1C(=O)NC1(c2cccc3ccccc23)CC1 [Compound 359, 5-(2-((2-Hydroxyethyl)amino)ethoxy)-2-methyl-N-(1-(naphthalen-1-yl)cyclopropyl)benzamide] | < 100 nM |
| Cc1ccc(OCCN(C)C)cc1C(=O)NC1(c2cccc(-c3ccccc3)c2C)CC1 [Compound 340, 5-(2-(Dimethylamino)ethoxy)-2-methyl-N-(1-(2-methyl-[1,1′-biphenyl]-3-yl)cyclopropyl)benzamide] | 100 to 1000 nM |
| Cc1ccc(OC[C@H](C)N)cc1C(=O)NC1(c2cc(Br)cc3ccccc23)CC1 [Compound 541, (S)-5-(2-Aminopropoxy)-N-(1-(3-bromonaphthalen-1-yl)cyclopropyl)-2-methylbenzamide] | < 100 nM |
| 2-Methyl-5-((2-methylazetidin-2-yl)methoxy)-N-(1-(naphthalen-1-yl)cyclopropyl)benzamide [Compound 394] | < 100 nM |
| COc1cc(C2(NC(=O)c3cc(OCCN(C)C)ccc3C)CC2)c2cccnc2c1 [Compound 434, 5-(2-(Dimethylamino)ethoxy)-N-(1-(7-methoxyquinolin-5-yl)cyclopropyl)-2-methylbenzamide] | < 100 nM |
| Cc1cc(C2(NC(=O)c3cc(OCC(C)N)ccc3C)CC2)c2ccccc2c1 (centres unmarked) [Compound 481, 5-(2-Aminopropoxy)-2-methyl-N-(1-(3-methylnaphthalen-1-yl)cyclopropyl)benzamide] | < 100 nM |
